Measured values published in patent US9708318B2, “Bicyclic heterocycles as FGFR4 inhibitors” (Incyte Corporation, priority 2015, dated 2017).
Where two headings read alike, the source gives them in different places.

How the values were obtained:
FGFR3 enzyme = FGFR3 enzyme (Homo sapiens (Human), UniProt P22607); test: FGFR Enzymatic Assay (FRET peptide phosphorylation), FGFR3; type: biochemical; details: read-out: FGFR3 IC50
Experimental: (§1) The inhibitor potency of the exemplified compounds was measured in an enzyme assay that measures peptide phosphorylation using FRET measurements to detect product formation. Inhibitors were serially diluted in DMSO and a volume of 0.5 μL was transferred to the wells of a 384-well plate.
(§2) GraphPad prism3 was used to analyze the data.

FGFR2 = FGFR2 (Homo sapiens (Human), UniProt P21802); test: FGFR Enzymatic Assay (FRET peptide phosphorylation), FGFR2; type: biochemical
Experimental: as §1
The enzymes were purchased from Millipore or Invitrogen.
as §2

FGFR1 = FGFR1 (Homo sapiens (Human), UniProt P11362); test: FGFR Enzymatic Assay (FRET peptide phosphorylation), FGFR1
[1] = FGFR1 IC50 (nM), pre-incubated for 4 hours
[2] = pre-incubated for 5 to 10 minutes
[3] = FGFR1 IC50 (nM), pre-incubated for 5 to 10 minutes

FGFR2, sequence (P21802 22-821): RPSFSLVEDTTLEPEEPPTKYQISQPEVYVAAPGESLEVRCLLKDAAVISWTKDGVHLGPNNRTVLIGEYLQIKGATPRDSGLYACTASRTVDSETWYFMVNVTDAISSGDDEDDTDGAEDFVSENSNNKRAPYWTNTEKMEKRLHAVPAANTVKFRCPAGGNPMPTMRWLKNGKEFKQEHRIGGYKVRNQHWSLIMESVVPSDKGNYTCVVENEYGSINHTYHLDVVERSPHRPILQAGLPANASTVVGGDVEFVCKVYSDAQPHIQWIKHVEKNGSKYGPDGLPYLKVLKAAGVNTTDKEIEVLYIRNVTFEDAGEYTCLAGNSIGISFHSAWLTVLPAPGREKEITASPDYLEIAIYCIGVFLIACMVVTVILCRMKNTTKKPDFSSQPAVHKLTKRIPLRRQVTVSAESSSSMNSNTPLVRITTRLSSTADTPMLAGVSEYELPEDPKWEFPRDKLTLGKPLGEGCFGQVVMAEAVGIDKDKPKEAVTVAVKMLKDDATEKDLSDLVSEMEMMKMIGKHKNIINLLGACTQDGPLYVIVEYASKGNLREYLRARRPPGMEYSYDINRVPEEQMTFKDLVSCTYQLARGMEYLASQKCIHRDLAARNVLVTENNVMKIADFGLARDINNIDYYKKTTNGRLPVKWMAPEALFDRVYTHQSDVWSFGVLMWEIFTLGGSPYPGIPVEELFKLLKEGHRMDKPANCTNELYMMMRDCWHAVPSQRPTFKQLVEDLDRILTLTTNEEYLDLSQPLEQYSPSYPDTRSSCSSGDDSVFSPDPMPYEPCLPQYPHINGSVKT
FGFR3 enzyme, sequence (P22607 23-806): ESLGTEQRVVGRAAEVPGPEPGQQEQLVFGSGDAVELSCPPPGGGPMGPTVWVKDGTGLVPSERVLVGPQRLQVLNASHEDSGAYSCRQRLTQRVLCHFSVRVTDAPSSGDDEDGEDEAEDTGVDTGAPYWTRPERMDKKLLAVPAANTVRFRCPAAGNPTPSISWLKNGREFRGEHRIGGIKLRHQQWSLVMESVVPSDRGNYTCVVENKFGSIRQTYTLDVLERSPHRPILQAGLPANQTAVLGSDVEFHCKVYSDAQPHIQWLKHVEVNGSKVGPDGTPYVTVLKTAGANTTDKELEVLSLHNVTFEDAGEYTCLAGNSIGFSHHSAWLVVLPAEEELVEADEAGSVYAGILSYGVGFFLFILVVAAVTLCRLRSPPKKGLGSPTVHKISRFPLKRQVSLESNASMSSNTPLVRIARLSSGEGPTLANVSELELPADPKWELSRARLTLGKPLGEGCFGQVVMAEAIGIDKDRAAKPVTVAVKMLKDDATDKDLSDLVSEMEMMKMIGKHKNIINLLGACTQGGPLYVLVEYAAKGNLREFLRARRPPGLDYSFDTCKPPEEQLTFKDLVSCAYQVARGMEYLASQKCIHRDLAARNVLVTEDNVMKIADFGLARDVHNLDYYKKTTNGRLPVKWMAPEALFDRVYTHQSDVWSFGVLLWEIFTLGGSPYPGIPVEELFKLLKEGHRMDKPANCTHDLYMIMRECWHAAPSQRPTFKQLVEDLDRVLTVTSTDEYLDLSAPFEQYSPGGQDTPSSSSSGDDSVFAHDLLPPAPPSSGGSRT
FGFR1, sequence (P11362 22-822): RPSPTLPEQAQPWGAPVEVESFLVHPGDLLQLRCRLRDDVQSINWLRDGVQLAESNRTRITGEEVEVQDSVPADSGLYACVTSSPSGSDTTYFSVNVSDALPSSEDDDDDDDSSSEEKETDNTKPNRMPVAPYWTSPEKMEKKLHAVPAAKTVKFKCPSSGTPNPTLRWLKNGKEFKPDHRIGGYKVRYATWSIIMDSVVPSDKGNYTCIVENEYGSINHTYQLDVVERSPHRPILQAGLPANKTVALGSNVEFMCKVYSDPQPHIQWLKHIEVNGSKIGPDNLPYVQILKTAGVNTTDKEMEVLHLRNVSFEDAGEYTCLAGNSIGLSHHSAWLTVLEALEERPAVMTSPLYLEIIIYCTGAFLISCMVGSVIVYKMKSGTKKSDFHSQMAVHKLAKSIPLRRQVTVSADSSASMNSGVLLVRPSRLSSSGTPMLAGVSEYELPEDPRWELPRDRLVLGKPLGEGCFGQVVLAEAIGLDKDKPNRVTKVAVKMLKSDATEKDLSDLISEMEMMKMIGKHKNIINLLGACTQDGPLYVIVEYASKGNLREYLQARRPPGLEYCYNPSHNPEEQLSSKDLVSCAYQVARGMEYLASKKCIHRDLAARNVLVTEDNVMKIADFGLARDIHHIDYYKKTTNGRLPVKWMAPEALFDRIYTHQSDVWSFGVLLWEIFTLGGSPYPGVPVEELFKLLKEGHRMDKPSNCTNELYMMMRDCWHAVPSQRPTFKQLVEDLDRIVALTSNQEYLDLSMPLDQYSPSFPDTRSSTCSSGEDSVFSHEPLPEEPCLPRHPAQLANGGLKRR

| IC50 (FGFR3 enzyme; pre-incubated for 4 hours) | IC50 (FGFR2; pre-incubated for 4 hours) | IC50 (FGFR1; [1]) | IC50 (FGFR3 enzyme; [2]) | IC50 (FGFR2; [2]) | IC50 (FGFR1; [3]) | IC50 (FGFR1; read-out: FGFR1 IC50, pre-incubated for 5 to 10 minutes) | IC50 (FGFR1; read-out: FGFR1 IC50, pre-incubated for 4 hours) | SMILES |
| --- | --- | --- | --- | --- | --- | --- | --- | --- |
| < 0.01 µM | < 0.01 µM | […] |  |  |  |  |  | COc1cc(OC)c(F)c(N2Cc3cnc(-c4cnn(C5(C#N)CCC5)c4C)cc3C3(CC3)C2=O)c1F [Example 149, 1-(4-(2′-(2,6-difluoro-3,5-dimethoxyphenyl)-3′-oxo-2′,3′-dihydro-1′H-spiro[cyclopropane-1,4′-[2,7]naphthyridine]-6′-yl)-5-methyl-1H-pyrazol-1-yl)cyclobutanecarbonitrile] |
| < 0.01 µM | 0.01 to 0.03 µM | 30 to 200 nM |  |  |  |  |  | COc1cc(OC)c(F)c(N2Cc3cnc(-c4cn(CCN5CCOCC5)nc4C)cc3C3(CC3)C2=O)c1F [Example 52, 2′-(2,6-difluoro-3,5-dimethoxyphenyl)-6′-(3-methyl-1-(2-morpholinoethyl)-1H-pyrazol-4-yl)-1′H-spiro[cyclopropane-1,4′-[2,7]naphthyridin]-3′(2′H)-one] |
| < 0.01 µM | < 0.01 µM | […] |  |  |  |  |  | CCc1nnc(CN2C(=O)N(c3c(F)c(OC)cc(OC)c3F)Cc3cnc(-c4cn(C)nc4C)cc32)o1 [Example 67, 3-(2,6-difluoro-3,5-dimethoxyphenyl)-7-(1,3-dimethyl-1H-pyrazol-4-yl)-1-((5-ethyl-1,3,4-oxadiazol-2-yl)methyl)-3,4-dihydropyrido[4,3-d]pyrimidin-2(1H)-one] |
| < 0.01 µM | < 0.01 µM | 10 to 30 nM |  |  |  |  |  | COc1cc(OC)c(F)c(N2Cc3cnc(-c4cn(C)nc4C)cc3N(CC3CCOCC3)C2=O)c1F [Example 37, 3-(2,6-difluoro-3,5-dimethoxyphenyl)-7-(1,3-dimethyl-1H-pyrazol-4-yl)-1-((tetrahydro-2H-pyran-4-yl)methyl)-3,4-dihydropyrido[4,3-d]pyrimidin-2(1H)-one] |
| < 0.01 µM | < 0.01 µM |  | < 0.01 µM | < 0.01 µM |  | < 10 nM | < 10 nM | CCN1C(=O)N(c2c(F)c(OC)cc(OC)c2F)Cc2cnc(-c3cnn(C)c3)cc21 [Example 169, 3-(2,6-difluoro-3,5-dimethoxyphenyl)-1-ethyl-7-(1-methyl-1H-pyrazol-4-yl)-3,4-dihydropyrido[4,3-d]pyrimidin-2(1H)-one] |

| SMILES | IC50 (FGFR3 enzyme; pre-incubated for 4 hours) | IC50 (FGFR2; pre-incubated for 4 hours) | IC50 (FGFR1; [1]) | IC50 (FGFR3 enzyme; [2]) | IC50 (FGFR2; [2]) | IC50 (FGFR1; [3]) | IC50 (FGFR1; read-out: FGFR1 IC50, pre-incubated for 5 to 10 minutes) | IC50 (FGFR1; read-out: FGFR1 IC50, pre-incubated for 4 hours) |
| --- | --- | --- | --- | --- | --- | --- | --- | --- |
| COc1cc(OC)c(F)c(N2Cc3cnc(-c4cn(C)nc4C)cc3N(Cc3cnn(C)c3C)C2=O)c1F [Example 48, 3-(2,6-difluoro-3,5-dimethoxyphenyl)-7-(1,3-dimethyl-1H-pyrazol-4-yl)-1-[(1,5-dimethyl-1H-pyrazol-4-yl)methyl]-3,4-dihydropyrido[4,3-d]pyrimidin-2(1H)-one] | […] | […] | […] |  |  |  |  |  |
